The values below come from patent US20080280303A1, “G-PROTEIN COUPLED RECEPTORS HIGH-[…]” (priority 2003, published 2008).

What all share (assay type): cell-based
For one assay, the target named is T1, EPAC (Homo sapiens, UniProt O95398).
T1 construct: expressed in transfected cells; host or cells: NIH 3T3
T1 sequence (O95398 1-923): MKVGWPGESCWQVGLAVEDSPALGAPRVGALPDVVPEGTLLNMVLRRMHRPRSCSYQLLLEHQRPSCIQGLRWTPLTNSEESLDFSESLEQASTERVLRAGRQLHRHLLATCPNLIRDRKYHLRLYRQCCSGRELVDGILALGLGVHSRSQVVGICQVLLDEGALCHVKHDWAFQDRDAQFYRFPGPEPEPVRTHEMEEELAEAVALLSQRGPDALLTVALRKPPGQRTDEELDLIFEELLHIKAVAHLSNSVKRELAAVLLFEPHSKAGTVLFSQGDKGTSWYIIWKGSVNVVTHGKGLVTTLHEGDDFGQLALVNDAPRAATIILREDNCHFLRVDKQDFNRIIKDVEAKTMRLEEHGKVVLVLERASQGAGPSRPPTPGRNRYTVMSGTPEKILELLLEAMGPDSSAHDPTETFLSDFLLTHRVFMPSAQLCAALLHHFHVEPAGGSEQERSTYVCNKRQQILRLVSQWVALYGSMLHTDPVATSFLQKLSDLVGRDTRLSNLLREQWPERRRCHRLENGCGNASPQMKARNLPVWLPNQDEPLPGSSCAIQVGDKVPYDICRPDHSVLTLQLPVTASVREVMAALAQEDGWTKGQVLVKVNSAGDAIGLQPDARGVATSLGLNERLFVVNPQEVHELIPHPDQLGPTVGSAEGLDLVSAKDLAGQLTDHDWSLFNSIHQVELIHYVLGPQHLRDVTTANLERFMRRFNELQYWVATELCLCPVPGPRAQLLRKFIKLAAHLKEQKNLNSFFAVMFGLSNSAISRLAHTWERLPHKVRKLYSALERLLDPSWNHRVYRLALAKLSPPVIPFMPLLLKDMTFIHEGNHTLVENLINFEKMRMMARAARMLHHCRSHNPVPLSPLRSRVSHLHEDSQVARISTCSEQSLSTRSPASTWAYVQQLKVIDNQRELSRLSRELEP
The assay is described as follows: R-SAT proliferation, EPAC co-expressed with ras/rapAA, with or without 8-Br cAMP. The following applies: 250 uM 8-Br cAMP; ras/rapAA 20 ng per well. As to the method: FIG. 2. Characterization of regulation and signaling properties of ras/rap chimeras. A) Proliferative responses of ras, rap, and ras/rap measured in R-SAT. 4 ng/well each of wild-type or GTPase deficient (V 12) mutants of ras, rap1A, or ras/rap1A (24) were transfected and analyzed for proliferative responses as described in Methods. B & C) Rap-selective exchange factors activate cellular proliferation in a ras/rap chimera dependent manner. B) Synergy of EPAC with ras/rap chimeras. Two ng per well of the rap selective exchange factor EPAC was co-expressed with 20 ng per well of either rap1B, ras/rap1A, ras/rap1B, ras/rapAA, or control vector and analyzed for proliferative responses as described above. C) Synergy of C3G with ras/rap chimeras. Twenty ng per well of the rap selective exchange factor C3G (68) was co-expressed with 20 ng per well of either rap1B, ras/rap1A, ras/rap1B, ras/rapAA, or control vector and analyzed for proliferative responses as described above. D) The indicated doses (ng per well) of EPAC were co-expressed with 20 ng per well of ras/rapAA in the presence or absence of 250 uM 8-Br cAMP and analyzed for proliferative responses as described above. […] Either 10 ng per well of control vector, ras or ras/rapAA was co-expressed with EPAC (2 ng per well), C3G (10 ng per well), or Sos2 (10 ng per well) and analyzed for proliferative responses. […]

Another assay addresses T2, GPR12 (Homo sapiens, UniProt P47775).
T2 construct: expressed in transfected cells
T2 sequence (P47775 1-334): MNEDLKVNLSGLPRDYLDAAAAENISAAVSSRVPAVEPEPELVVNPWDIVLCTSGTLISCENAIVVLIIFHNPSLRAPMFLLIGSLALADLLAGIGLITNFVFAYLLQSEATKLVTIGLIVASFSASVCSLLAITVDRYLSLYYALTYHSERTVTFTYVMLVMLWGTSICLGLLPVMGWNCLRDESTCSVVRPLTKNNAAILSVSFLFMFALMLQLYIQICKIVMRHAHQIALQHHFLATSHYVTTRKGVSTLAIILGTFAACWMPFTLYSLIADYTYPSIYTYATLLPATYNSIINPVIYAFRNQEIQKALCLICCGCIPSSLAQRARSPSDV
The assay is described as follows: R-SAT constitutive proliferation, orphan receptor with ras/rapAA and ACII, with or without pertussis toxin. As to conditions: PTX, 100 ng/ml. As to the method: (§1) FIG. 7. Functional validation and characterization of orphan GPCRs using helper genes. A) The indicated receptors were expressed at two doses either alone, with ras/rapAA (20 ng/well) and ACII (2 ng/well), or Gαq (4 ng/well) and analyzed for constitutive stimulation of cellular proliferation as described above. Control represents the transfection of the same helper genes with vector substituting for receptor. The transfections were all balanced with vector to ensure the same total amount of DNA was transfected in each case. PI hydrolysis assays were carried out using tsa cells transfected with 20 ng/well of each receptor as described in Methods. B) The indicated receptors were expressed at two doses either alone, with ras/rapAA (20 ng/well) and ACII (2 ng/well), or Gαq (4 ng/well) and analyzed for constitutive stimulation of cellular proliferation as described above. Control represents the transfection of the same helper genes with vector substituting for receptor. The transfections were all balanced with vector to ensure the same total amount of DNA was transfected in each case. Cyclic AMP accumulation assays were carried out using HEK293 cells transfected with 20 ng/well of each receptor as described in Methods. C) The indicated receptors were expressed at with ras/rapAA (20 ng/well) and ACII (2 ng/well), incubated in the presence or absence of pertussis toxin (PTX, 100 ng/ml) and analyzed for constitutive stimulation of cellular proliferation as described above. Control represents the transfection of the same helper genes with vector substituting for receptor. D) The indicated receptors were tested for stimulation of cyclic AMP production as described in the experimental methods.
(§2) Functional assays. […] After five days in culture β-galactosidase levels were measured essentially as described (35). […] After 3 hr the plates were read at 420 nm on a plate-reader (Bio-Tek EL 310 or Molecular Devices). […]

Another assay concerns the target T3, GPR6 (Homo sapiens, UniProt P46095).
T3 construct: expressed in transfected cells
Described as above. As to conditions: PTX, 100 ng/ml. How it is done: as §1, §2

The target of the next assay is T4, GPR3 (Homo sapiens, UniProt P46089).
T4 construct: expressed in transfected cells
T4 sequence (P46089 whole entry, species assumed): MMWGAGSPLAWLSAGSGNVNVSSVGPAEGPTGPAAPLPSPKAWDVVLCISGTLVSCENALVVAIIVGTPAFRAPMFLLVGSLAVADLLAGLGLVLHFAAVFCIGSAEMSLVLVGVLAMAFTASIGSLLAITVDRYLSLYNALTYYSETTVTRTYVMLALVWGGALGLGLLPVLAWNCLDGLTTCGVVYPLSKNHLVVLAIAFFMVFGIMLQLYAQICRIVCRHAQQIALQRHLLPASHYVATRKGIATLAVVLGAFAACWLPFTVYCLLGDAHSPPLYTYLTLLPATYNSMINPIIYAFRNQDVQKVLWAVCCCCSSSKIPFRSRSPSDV
The description is as above. The following applies: PTX, 100 ng/ml. As to the method:
as §1, §2

The target in the next assay is T5, 5HT1E serotonin receptor (Homo sapiens, UniProt P28566).
T5 construct: expressed in transfected cells; host or cells: NIH 3T3
T5 sequence (P28566 whole entry): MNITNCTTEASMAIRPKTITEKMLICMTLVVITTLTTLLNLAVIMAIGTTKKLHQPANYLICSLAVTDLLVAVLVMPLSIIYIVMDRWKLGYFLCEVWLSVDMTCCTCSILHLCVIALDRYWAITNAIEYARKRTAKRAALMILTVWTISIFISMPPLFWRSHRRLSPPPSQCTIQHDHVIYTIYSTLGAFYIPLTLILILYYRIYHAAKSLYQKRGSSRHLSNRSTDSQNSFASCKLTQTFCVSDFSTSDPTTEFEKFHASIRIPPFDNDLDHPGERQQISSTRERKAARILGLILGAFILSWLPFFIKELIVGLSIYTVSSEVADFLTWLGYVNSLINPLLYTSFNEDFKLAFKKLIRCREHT
The assay is described as follows: R-SAT cellular proliferation, 5HT1E co-expressed with ras/rapAA, with or without pertussis toxin. The following applies: 100 ug/ml pertussis toxin; agonist BRL54443; NIH 3T3 cells. How it is done:
(§3) FIG. 4. Pertussis toxin sensitivity of ras/rap dependent proliferative responses to Gs-coupled and Gi-coupled GPCRs. A) D1 (4 ng per well) and ras/rapAA (20 ng per well) were co-expressed and analyzed for proliferative responses in the presence or absence of 100 ug/ml pertussis toxin in the presence of the indicated concentrations of SKF81297. B) 5HT1E (20 ng per well) and ras/rapAA (20 ng per well) were co-expressed and analyzed for proliferative responses in the presence or absence of 100 ug/ml pertussis toxin in the presence of the indicated concentrations of BRL54443. C) D2 (4 ng/well), alpha2C (20 ng/well), and SST5 (4 ng/well) were each expressed with ras/rapAA (20 ng/well), incubated with the indicated concentrations of ligand and either with or without 100 ng/ml pertussis toxin (PTX) and analyzed for proliferative responses as described above. Control represents the receptors expressed alone.
as §2

The next assay has as its target T6, D1 dopamine receptor (Homo sapiens, UniProt P21728).
T6 construct: expressed in transfected cells; host or cells: NIH 3T3
In words: R-SAT cellular proliferation, D1 co-expressed with ras/rapAA, with or without pertussis toxin. As to conditions: 100 ug/ml pertussis toxin; agonist SKF81297; NIH 3T3 cells. How it is done: as §3, §2

T6 sequence (P21728 whole entry): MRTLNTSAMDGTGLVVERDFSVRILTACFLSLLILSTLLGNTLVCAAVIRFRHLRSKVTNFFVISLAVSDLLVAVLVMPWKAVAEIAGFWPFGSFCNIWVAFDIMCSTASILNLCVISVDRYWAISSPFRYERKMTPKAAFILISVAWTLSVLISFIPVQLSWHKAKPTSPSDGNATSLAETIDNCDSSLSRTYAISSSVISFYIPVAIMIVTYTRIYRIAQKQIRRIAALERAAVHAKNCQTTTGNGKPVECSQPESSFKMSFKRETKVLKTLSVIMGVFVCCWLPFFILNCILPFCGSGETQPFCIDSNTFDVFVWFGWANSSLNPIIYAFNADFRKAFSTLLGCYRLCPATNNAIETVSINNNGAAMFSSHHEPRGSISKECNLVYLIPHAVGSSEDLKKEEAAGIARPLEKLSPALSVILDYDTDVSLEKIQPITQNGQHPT
T3 sequence (P46095 whole entry, species assumed): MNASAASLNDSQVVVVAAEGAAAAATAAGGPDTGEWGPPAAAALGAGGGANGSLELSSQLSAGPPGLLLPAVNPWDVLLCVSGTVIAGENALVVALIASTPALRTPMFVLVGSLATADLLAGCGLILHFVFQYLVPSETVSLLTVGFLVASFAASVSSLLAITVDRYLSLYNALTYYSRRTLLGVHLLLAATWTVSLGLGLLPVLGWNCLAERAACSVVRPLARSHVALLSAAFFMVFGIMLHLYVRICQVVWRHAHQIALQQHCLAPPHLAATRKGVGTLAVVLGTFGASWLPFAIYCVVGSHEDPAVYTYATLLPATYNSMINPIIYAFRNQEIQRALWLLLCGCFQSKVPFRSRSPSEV

For the compound `Nc1ncnc2c1nc(Br)n2[C@@H]1O[C@@H]2COP(=O)(O)O[C@H]2[C@H]1O` [8-Br cAMP], on EPAC, the “stimulation of EPAC to induce ras/rap-dependent responses” value is recorded as “stimulated”.
For the compound pertussis toxin, the “effect on helper gene dependent constitutive response to GPR12” value on GPR12 is given as “hardly affected”. Moreover, the “effect on helper gene dependent constitutive response to GPR6” value at GPR6 is “significantly blunted”. Further, the “effect on helper gene dependent constitutive response to GPR3” value at GPR3 is “hardly affected”. In addition, the “effect on ras/rap dependent responses to 5HT1E” value at 5HT1E serotonin receptor is on record as “completely blocked”. In addition, the “effect on ras/rap dependent responses to D1” value at D1 dopamine receptor was “did not block, and slightly increased”.
